Ends that are not written are not given here.

Assay [1] deals with sepsis, septic shock and MODS. As to conditions: patients with sepsis; cited from earlier work.
The subject of assay [2] is CLP-induced polymicrobial sepsis. Kind of assay: Activity score after CLP. Format: in vivo, C57BL/6-mice. The conditions noted are these: 4 μg/kg i.p. simultaneously to CLP, vs control. As to the method: The surgical procedure was as follows: the cecum was exposed after a midline laparotomy and ligated distal to the ileocecal valve. Subsequently, the cecum was punctured twice using a 21 G needle and was returned to the abdominal cavity. The model also includes the protrusion of contents of the cecum to assure the presence of bacteria in the peritoneum. The closure of the abdomen was performed with double layer sutures. Data were obtained 4, 24 and 96 hours after surgery. Clinical data concerning mortality and activity were obtained once daily until 96 hours after instrumentation.
As a measure for clinical status, activity of mice was analyzed by using a previously established scoring system, see table 1. Within this score, the spontaneous activity, spontaneous food intake and response to exogenous stimuli was analyzed. The scoring of each animal (from 1=moribund to 6=very active) was independently performed in a blinded fashion by two persons and the mean of both values was recorded.

The subject of a further assay is sepsis-related mortality. As to conditions: pretreatment four days before sepsis induction; cited from earlier work.
Assay [3] relates to CLP-induced polymicrobial sepsis. Kind of assay: Mortality after cecal ligation and puncture (CLP) polymicrobial sepsis. The assay is classed as in vivo, C57BL/6-mice. The conditions noted are these: over 96 h. From the text:
Maintenance and use of the animals were in accord with the German Animal Welfare Legislation. All experiments were approved by the local institutional animal care and research advisory committee and permitted by the local government of Lower Saxony (Germany). 47 male C57BL/6-mice (Charles River, Germany) with a weight of 20±3 g were used for the study. All animals were handled at room temperature for 14 days before treatment. Animals were maintained under standardized conditions with a controlled environment at 21±2° C., relative humidity of 50% and artificial light (14 hours light, 10 hours dark). They received a commercial pellet diet (altromin 1317) and water ad libitum. Analgetic treatment was performed in all animals (200 mg/kg body weight (BW) metamizol-sodium, Novalgin®, Hoechst, Unterschleiβheim, Germany) throughout the study.
All surgical procedures were performed after deeply anaesthetizing the animals with isoflurane. The mice were warmed to 36° C. using infrared warming lamps after having finished the surgical procedures. All mice received once daily subcutaneous injections of 1 ml sterile ringer's lactate for fluid replacement.
The surgical procedure was as follows: the cecum was exposed after a midline laparotomy and ligated distal to the ileocecal valve. Subsequently, the cecum was punctured twice using a 21 G needle and was returned to the abdominal cavity. […]

A further assay concerns peritoneal macrophages. Kind of assay: Cytokine and chemokine secretion of isolated peritoneal macrophages after CLP. As to conditions: cells isolated 24 h after CLP, cultured 24 h; vs control, p>0.05.

Method for peritoneal macrophages: The control group received saline as vehicle, the study group was substituted with 4 μg/kg MALP-2 i.p simultaneously to cecal ligation and puncture (CLP). All animals underwent CLP for induction of polymicrobial sepsis.
Peritoneal macrophages were isolated by lavage of the peritoneal cavity with 3×5 ml PBS containing 10 IU/ml heparin (Ratiopharm) 24 hours after CLP. Thereafter, cells were washed once with PBS and centrifuged at 400×g for 15 minutes at 4° C. The pellet was resuspended in 5 ml RPMI (Biochrom) containing 10% FCS and antibiotics (50 U/ml penicillin, 50 μg/ml streptomycin, Invitrogen; 2.5 μg/ml Amphotericin B, Biochrom). 106 cells were plated in a 24-well plate and incubated for 24 hours at 37° C., 95% humidity, and 5% CO2. At the end of the incubation period, the supernatants were removed and stored at −80° C. until analysis was performed.
Cytokine and chemokines in plasma and cell culture supernatant were measured with Multiplex and Simplex Kits according to manufacturer's instructions (BenderMed Systems, Vienna, Austria).

Consider activated protein C, for which the “reduction of death of affected patients” value in assay [1] was 6.1%.

Consider “Macrophage-activating lipopeptide-2 (GNNDESNISFKEK; not fully specified) [MALP-2]”, for which the “activity rates (activity score, table 1)” value in assay [2] (24 to 72 hours following CLP, p<0.05) was “increased”; in assay [2] (after 96 hours) it was “comparable between both groups”. In the assay on sepsis-related mortality, the “protection against sepsis-related mortality” value is “partial protection”. For the same substance, the total mortality in assay [3] (4 μg/kg BW i.p. simultaneously to CLP, control 62.5%, p=0.031) amounted to 12.5%. Also, the mortality (in general, the percentage killed) in assay [3] (MALP-2 i.p. 6 hours following CLP, p=0.047 vs vehicle) amounted to 22.2%. In the assay with peritoneal macrophages, the “IL-6, IL-10, TNF-α, MCP-1, MCP-3 or GM-CSF of peritoneal macrophages” value is “No differences”.
